The values that follow are results of earlier work, collected in article PMC9042886 (RSC Advances, 2021).

The subject of data set [1] is HDAC6. The conditions noted are these: read-out: IC50 for HDAC6.
In data set [2] the test system is HDAC8. The settings on record: read-out: IC50 for HDAC8.

The structures appear in SMILES notation.

For orientation: IC50 means the concentration at which inhibition is half-maximal. For `Oc1ccc[nH]c1=S` [3-HPT, 3-hydroxypyridin-2-thione], the IC50 is 0.306 ± 0.069 µM in data set [1] and 3.1 ± 1.65 µM in data set [2].
